Measurements published in ChEMBL document CHEMBL5291721, “A preclinical secondary pharmacology resource illuminates target-adverse drug reaction associations of marketed drugs” (Nat Commun, 2023).

Legend:
D(1A) dopamine receptor [1] = molecular target: T1, D(1A) dopamine receptor (Homo sapiens, UniProt P21728); format: functional, cell-based
[2] = molecular target: Receptor tyrosine-protein kinase erbB-2 (Homo sapiens, UniProt P04626); format: functional
Estrogen receptor [3] = molecular target: T2, Estrogen receptor (Homo sapiens, UniProt P03372); format: functional
T2 sequence (P03372 whole entry): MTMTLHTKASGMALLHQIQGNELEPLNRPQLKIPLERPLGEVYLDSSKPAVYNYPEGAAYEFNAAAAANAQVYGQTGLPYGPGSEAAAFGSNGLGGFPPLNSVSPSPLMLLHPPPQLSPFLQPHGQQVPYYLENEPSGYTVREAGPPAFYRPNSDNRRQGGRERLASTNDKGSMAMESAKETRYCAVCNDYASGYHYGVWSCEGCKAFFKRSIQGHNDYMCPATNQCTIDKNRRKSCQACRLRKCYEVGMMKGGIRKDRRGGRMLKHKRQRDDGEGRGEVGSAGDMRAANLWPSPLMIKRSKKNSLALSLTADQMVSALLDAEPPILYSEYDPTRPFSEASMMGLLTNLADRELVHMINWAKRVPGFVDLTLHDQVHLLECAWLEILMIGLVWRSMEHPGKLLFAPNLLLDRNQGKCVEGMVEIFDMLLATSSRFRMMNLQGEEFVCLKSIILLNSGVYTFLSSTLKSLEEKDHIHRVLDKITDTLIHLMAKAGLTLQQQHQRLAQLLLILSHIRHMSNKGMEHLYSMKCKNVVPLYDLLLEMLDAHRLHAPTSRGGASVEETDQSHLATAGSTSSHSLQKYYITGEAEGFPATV

[4] = molecular target: T3, Gamma-aminobutyric acid receptor subunit alpha-1/alpha-2/beta-2/gamma-2 (Homo sapiens, UniProt P14867+P18507+P47869+P47870); format: functional, cell-based
T3 sequence (P14867 whole entry): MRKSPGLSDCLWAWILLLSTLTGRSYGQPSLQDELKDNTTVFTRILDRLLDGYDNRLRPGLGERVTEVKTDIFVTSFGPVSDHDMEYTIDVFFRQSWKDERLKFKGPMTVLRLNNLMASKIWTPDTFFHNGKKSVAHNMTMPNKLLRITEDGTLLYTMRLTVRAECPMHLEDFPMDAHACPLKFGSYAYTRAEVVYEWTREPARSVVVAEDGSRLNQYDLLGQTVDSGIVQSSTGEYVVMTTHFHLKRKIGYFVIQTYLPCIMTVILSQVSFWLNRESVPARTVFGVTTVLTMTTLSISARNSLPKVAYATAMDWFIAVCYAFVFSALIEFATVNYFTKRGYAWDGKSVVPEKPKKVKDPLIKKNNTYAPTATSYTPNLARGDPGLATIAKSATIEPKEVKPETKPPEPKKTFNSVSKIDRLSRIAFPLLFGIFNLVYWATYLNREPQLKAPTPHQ
T3 sequence (P47870 whole entry): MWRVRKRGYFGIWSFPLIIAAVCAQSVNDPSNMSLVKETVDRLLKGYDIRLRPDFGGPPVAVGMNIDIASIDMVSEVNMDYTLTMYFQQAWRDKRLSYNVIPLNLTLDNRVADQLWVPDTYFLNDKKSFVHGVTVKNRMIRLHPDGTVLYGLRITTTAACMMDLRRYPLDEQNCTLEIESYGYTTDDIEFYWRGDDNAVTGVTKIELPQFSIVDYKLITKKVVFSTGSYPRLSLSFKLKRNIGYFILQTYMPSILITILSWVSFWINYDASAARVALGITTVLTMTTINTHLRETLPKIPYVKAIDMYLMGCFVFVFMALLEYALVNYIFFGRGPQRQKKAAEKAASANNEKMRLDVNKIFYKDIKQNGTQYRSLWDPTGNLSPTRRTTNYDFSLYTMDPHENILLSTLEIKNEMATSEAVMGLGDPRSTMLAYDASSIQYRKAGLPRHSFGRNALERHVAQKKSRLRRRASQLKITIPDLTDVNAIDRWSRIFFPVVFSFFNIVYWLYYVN
T3 sequence (P18507 whole entry): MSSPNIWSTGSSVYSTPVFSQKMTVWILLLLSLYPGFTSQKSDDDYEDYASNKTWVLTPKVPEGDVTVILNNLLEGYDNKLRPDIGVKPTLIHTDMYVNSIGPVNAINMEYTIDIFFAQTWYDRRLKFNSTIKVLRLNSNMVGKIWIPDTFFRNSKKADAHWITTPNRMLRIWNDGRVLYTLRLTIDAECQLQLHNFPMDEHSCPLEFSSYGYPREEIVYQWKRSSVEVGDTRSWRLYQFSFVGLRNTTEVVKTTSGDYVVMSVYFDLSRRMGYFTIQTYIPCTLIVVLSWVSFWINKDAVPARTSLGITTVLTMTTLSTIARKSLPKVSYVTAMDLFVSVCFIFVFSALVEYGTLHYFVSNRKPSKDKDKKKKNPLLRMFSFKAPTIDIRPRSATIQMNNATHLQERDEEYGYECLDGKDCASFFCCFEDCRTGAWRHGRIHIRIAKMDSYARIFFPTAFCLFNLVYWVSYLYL
T3 sequence (P47869 whole entry): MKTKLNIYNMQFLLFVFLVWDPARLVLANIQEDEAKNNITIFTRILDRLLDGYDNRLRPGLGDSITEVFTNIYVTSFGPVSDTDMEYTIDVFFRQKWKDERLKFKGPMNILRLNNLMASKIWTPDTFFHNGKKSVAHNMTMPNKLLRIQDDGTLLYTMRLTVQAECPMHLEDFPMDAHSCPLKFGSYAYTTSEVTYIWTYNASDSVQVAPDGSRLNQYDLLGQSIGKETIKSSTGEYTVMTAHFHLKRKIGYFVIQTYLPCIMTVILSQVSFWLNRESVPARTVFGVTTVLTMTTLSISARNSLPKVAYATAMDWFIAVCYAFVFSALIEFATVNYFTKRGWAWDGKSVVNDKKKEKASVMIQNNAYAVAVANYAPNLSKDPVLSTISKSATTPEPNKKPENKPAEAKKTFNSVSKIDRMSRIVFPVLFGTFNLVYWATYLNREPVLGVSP

Estrogen receptor [5] = molecular target: T2, Estrogen receptor; format: functional; remark: listed apart in the source
[6] = molecular target: T4, Peroxisome proliferator-activated receptor gamma (Homo sapiens, UniProt P37231); format: functional
T4 sequence (P37231 whole entry): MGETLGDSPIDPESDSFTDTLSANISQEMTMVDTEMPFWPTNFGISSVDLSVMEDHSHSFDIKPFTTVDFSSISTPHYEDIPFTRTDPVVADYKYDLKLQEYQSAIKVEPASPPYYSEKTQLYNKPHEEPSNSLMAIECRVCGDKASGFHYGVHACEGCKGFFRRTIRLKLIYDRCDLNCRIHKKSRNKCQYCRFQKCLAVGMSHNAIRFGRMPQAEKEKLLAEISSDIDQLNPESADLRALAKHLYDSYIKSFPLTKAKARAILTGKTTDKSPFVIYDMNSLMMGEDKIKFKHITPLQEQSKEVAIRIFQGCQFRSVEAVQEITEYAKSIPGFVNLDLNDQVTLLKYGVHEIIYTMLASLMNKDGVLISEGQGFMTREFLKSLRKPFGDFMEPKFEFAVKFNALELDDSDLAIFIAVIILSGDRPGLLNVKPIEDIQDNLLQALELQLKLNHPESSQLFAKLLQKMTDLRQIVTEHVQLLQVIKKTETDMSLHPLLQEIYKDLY

[7] = molecular target: Beta-3 adrenergic receptor (Homo sapiens, UniProt P13945)
Sequence of Beta-3 adrenergic receptor (P13945 whole entry): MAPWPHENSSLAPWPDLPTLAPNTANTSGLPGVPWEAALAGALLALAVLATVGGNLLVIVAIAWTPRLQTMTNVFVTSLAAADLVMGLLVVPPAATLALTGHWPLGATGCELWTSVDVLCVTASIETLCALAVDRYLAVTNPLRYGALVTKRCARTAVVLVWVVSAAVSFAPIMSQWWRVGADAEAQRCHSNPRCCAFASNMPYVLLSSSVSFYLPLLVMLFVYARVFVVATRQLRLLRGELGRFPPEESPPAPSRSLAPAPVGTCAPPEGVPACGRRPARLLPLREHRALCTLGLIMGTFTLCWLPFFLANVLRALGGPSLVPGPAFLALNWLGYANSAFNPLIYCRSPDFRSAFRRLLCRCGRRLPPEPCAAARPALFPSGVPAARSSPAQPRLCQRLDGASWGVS

[8] = molecular target: T5, Alpha-2A adrenergic receptor (Homo sapiens, UniProt P08913)
T5 sequence (P08913 whole entry): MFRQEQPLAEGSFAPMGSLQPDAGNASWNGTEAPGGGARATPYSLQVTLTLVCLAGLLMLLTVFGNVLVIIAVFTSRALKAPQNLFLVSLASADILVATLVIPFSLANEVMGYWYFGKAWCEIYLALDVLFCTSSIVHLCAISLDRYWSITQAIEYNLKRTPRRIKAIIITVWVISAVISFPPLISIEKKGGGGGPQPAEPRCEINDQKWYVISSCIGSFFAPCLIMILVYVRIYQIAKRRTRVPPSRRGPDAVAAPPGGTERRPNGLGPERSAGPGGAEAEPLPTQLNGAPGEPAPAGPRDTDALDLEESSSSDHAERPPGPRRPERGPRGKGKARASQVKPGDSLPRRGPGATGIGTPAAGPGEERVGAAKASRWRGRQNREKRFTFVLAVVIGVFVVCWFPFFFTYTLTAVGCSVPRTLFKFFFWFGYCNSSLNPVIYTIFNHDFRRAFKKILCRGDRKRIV

Histamine H2 receptor = Histamine H2 receptor (Homo sapiens, UniProt P25021)
Sequence of Histamine H2 receptor (P25021 whole entry): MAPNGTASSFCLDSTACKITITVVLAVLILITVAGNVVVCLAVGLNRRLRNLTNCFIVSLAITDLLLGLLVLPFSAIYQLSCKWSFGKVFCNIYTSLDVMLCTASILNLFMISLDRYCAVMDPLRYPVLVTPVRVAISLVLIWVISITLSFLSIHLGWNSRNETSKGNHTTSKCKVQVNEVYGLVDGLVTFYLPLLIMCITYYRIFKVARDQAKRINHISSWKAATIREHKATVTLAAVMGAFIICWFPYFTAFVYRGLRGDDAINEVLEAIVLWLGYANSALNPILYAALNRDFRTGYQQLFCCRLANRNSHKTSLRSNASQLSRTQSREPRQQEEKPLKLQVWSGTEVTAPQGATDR

[9] = molecular target: Neurotensin receptor type 1 (Homo sapiens, UniProt P30989)
Sequence of Neurotensin receptor type 1 (P30989 whole entry): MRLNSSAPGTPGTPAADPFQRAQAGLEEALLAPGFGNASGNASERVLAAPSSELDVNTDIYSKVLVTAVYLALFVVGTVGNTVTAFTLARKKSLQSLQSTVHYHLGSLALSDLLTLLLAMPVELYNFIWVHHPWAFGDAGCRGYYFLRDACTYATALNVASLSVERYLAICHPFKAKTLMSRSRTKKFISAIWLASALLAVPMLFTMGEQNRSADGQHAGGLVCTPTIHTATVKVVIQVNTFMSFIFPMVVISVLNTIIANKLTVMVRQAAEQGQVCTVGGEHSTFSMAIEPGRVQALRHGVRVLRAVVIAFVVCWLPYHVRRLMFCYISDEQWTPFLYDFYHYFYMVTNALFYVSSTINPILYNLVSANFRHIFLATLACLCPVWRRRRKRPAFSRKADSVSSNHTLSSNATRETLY

[10] = molecular target: Voltage-dependent N-type calcium channel subunit alpha-1B (Rattus norvegicus, UniProt Q02294); format: functional
D(4) dopamine receptor = molecular target: T6, D(4) dopamine receptor (Homo sapiens, UniProt P21917)
T6 sequence (P21917 whole entry): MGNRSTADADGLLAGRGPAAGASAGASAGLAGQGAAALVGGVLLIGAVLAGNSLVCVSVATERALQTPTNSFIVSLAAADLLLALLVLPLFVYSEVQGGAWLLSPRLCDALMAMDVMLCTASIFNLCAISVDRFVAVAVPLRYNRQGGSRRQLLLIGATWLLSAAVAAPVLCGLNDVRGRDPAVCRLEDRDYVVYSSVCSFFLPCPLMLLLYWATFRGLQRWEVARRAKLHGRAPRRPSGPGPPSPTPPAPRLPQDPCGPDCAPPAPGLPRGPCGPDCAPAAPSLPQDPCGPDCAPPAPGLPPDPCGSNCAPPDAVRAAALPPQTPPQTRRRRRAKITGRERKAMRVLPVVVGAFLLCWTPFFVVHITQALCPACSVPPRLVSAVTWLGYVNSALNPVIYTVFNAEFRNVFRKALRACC

D(1A) dopamine receptor [11] = molecular target: T1, D(1A) dopamine receptor
Mu-type opioid receptor = Mu-type opioid receptor (Homo sapiens, UniProt P35372); experiment: biochemical; format: functional
[12] = molecular target: T3, Gamma-aminobutyric acid receptor subunit alpha-1/alpha-2/beta-2/gamma-2; format: protein-complex assay
Further: assay procedure not described here.

T1 sequence (P21728 whole entry): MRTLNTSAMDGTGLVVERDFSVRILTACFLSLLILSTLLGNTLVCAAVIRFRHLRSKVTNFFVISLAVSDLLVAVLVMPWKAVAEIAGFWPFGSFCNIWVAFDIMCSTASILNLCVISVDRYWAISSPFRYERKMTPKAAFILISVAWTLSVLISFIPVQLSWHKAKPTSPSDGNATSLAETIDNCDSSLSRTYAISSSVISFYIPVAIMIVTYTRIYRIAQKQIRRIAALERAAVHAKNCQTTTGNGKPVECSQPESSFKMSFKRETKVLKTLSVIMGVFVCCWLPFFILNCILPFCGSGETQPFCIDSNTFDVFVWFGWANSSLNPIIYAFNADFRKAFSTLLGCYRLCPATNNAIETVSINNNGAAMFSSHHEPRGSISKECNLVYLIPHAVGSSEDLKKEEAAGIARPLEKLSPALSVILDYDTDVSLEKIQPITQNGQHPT
Sequence of Receptor tyrosine-protein kinase erbB-2 (P04626 whole entry): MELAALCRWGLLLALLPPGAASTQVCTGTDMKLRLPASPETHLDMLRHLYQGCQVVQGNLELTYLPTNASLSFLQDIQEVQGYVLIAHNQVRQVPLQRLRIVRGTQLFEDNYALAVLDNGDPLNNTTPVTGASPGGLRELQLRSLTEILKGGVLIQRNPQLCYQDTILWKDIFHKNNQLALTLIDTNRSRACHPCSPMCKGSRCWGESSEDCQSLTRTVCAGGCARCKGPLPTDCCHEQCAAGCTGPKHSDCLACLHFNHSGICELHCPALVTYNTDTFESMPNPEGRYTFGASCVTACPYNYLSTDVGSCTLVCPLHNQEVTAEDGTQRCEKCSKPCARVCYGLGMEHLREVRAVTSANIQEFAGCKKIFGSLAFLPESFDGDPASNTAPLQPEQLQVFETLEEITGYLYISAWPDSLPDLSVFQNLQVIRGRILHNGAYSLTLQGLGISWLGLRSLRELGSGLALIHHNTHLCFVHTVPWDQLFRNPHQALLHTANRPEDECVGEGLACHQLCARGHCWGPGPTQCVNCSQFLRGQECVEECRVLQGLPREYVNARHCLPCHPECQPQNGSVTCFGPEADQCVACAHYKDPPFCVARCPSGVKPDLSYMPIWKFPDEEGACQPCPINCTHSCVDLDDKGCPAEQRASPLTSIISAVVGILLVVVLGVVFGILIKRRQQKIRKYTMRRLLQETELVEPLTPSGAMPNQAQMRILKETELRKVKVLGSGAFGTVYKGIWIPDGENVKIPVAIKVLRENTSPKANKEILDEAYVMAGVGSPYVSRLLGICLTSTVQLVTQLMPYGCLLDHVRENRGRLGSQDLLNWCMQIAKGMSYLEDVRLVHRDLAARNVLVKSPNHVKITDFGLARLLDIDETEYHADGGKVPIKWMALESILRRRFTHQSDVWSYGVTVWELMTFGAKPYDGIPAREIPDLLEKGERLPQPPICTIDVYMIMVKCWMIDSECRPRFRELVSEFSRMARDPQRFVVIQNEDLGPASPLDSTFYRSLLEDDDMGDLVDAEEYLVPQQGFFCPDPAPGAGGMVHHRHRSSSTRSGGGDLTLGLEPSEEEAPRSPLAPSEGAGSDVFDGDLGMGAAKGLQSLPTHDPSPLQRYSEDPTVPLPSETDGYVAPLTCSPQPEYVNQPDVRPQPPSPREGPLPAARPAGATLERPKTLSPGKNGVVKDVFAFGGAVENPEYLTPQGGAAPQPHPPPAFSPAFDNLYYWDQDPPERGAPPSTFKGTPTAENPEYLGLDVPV

Compound	AC50 (D(1A) dopamine receptor [1]) [µM]	AC50 [2] [µM]	AC50 (Estrogen receptor [3]) [µM]	AC50 [4] [µM]	AC50 (Estrogen receptor [5]) [µM]	AC50 [6] [µM]	AC50 [7] [µM]	AC50 [8] [µM]	AC50 (Histamine H2 receptor) [µM]	AC50 [9] [µM]	AC50 [10] [µM]	AC50 (D(4) dopamine receptor) [µM]	AC50 (D(1A) dopamine receptor [11]) [µM]	AC50 (Mu-type opioid receptor) [µM]	AC50 [12] [µM]
C[C@H]1CNCCc2ccc(Cl)cc21 [LORCASERIN]	> 30	> 30	> 30	> 30	> 30	> 30									
Cc1c(C(=O)NN2CCCCC2)nn(-c2ccc(Cl)cc2Cl)c1-c1ccc(Cl)cc1 [RIMONABANT]	26	> 30	> 10	> 30	> 30	> 30	> 30	> 10	10.9	> 30	> 10	> 10			
Cn1nnc2c(C(N)=O)ncn2c1=O [TEMOZOLOMIDE]	> 30	> 30	> 30	> 30	> 30	> 30	> 30	> 10	> 10	> 30	> 10	> 10	> 10		
c1cnc(N2CCN(Cc3ccc4c(c3)OCO4)CC2)nc1 [PIRIBEDIL]	> 30	> 30	> 30	> 30	> 30	> 30									
CN(C)CCC=C1c2ccccc2C(C)(C)c2ccccc21	4.5	> 30	> 30	> 30	> 30	> 30									
COc1ccc(CC(C)(C)NC[C@H](O)c2cc(O)cc3c2OCC(=O)N3)cc1 [OLODATEROL]	> 30	> 30	> 30	> 30	> 30	> 30									
c1ccc([C@H]2CN3CCSC3=N2)cc1 [LEVAMISOLE]	> 30	> 30	> 30	> 30	> 30	> 30							> 30	> 30	
N[C@@H]1[C@H]2CN(c3nc4c(cc3F)c(=O)c(C(=O)O)cn4-c3ccc(F)cc3F)C[C@@H]12 [TROVAFLOXACIN]	> 30	> 30	> 30	> 30	> 30	> 30									
CNC1Cc2ccccc2N(C)c2ccccc21 (stereo not drawn) [METAPRAMINE]	> 30	> 30	> 30	> 30	> 30	> 30									
O=C(OCC(O)CO)c1ccccc1Nc1ccnc2cc(Cl)ccc12 (stereo not drawn) [GLAFENINE]	> 30	> 30	> 30	17	> 10	> 30									> 30
C1CCC(C(CC2CCCCN2)C2CCCCC2)CC1 (stereo not drawn) [PERHEXILINE]	> 30	> 30	> 30		> 30	> 30									
NCC(CC(=O)O)c1ccc(Cl)cc1 (stereo not drawn) [BACLOFEN]	> 30	> 30		> 30		> 30	> 30	> 10	> 10	> 30	> 10	> 10	> 10		> 30
